Data published in patent US20170291905A1, “ARGININE […] INHIBITORS AND USES THEREOF” (Epizyme, Inc., priority 2014, published 2017).
Where a name gives a salt, the structure may show the parent alone.

Biological target: T1, full-length human PRMT1 isoform 1 (GST-tagged) (Homo sapiens, UniProt Q99873)
T1 construct: GST-tagged PRMT1 was eluted with 50 mM Tris, 2 mM glutathione, pH 7.8, dialysed in buffer A and concentrated; made in house; host or cells: High Five insect cells (baculovirus)
Experiment: PRMT1 biochemical assay (3H-SAM Flashplate, histone H4 36-50 peptide)
Details: 0.5 nM PRMT1, 30 min preincubation, 20 nM peptide
Text: S-adenosylmethionine (SAM), S-adenosylhomocysteine (SAH), bicine, Tween20, dimethylsulfoxide (DMSO), bovine skin gelatin (BSG), and Tris(2-carboxyethyl)phosphine hydrochloride solution (TCEP) were purchased from Sigma-Aldrich at the highest level of purity possible. ^3H-SAM was purchase from American Radiolabeled Chemicals with a specific activity of 80 Ci/mmol. 384-well streptavidin Flashplates were purchased from PerkinElmer.
Peptide representative of human histone H4 residues 36-50 was synthesized with an N-terminal linker-affinity tag motif and a C-terminal amide cap by 21st Century Biochemicals. The peptide was purified by high-performance liquid chromatography (HPLC) to greater than 95% purity and confirmed by liquid chromatography mass spectrometry (LC-MS). The sequence was Biot-Ahx-[…]-amide (SEQ ID NO.:1).
Full-length human PRMT1 isoform 1 (NM_001536.5) transcript clone was amplified from an HEK 293 cDNA library, incorporating flanking 5′ sequence encoding a FLAG tag ([…]) (SEQ ID NO.:2) fused directly to Met 1 of PRMT1. The amplified gene was subcloned into pFastBacI (Life Technologies) modified to encode an N-terminal GST tag and a TEV cleavage sequence
Recombinant baculovirus were generated according to Bac-to-Bac kit instructions (Life Technologies). Protein over-expression was accomplished by infecting exponentially growing High Five insect cell culture at 1.5×10^6 cell/ml with 1:100 ratio of virus. Infections were carried out at 27° C. for 48 hours, harvested by centrifugation, and stored at −80° C. for purification.
GST-tagged PRMT1 was eluted with 50 mM Tris, 2 mM glutathione, pH 7.8, dialysed in buffer A and concentrated to 1 mg/mL. The purity of recovered protein was 73%. Reference: Wasilko, D. J. and S. E. Lee: “TIPS: titerless infected-cells preservation and scale-up” Bioprocess J., 5 (2006), pp. 29-32.
General Procedure for PRMT1 Enzyme Assays on Peptide Substrates.
The assays were all performed in a buffer consisting of 20 mM Bicine (pH=7.6), 1 mM TCEP, 0.005% BSG, and 0.002% Tween 20, prepared on the day of use. Compounds in 100% DMSO (1 ul) were spotted into a polypropylene 384-well V-bottom plates (Greiner) using a Platemate Plus outfitted with a 384-channel head (Thermo Scientific). DMSO (1 ul) was added to Columns 11, 12, 23, 24, rows A-H for the maximum signal control and 1 ul of SAH, a known product and inhibitor of PRMT1, was added to columns 11, 12, 23, 24, rows I-P for the minimum signal control. A cocktail (40 ul) containing the PRMT1 enzyme was added by Multidrop Combi (Thermo-Fisher). The compounds were allowed to incubate with PRMT1 for 30 min at room temperature, then a cocktail (10 ul) containing SAM and peptide was added to initiate the reaction (final volume=51 ul). The final concentrations of the components were as follows: PRMT1 was 0.5 nM, ^3H-SAM was 200 nM, non-radiolabeled SAM was 1.5 uM, peptide was 20 nM, SAH in the minimum signal control wells was 1 mM, and the DMSO concentration was 2%. The assays were stopped by the addition of non-radiolabeled SAM (10 ul) to a final concentration of 300 uM, which dilutes the ^3H-SAM to a level where its incorporation into the peptide substrate is no longer detectable. 50 ul of the reaction in the 384-well polypropylene plate was then transferred to a 384-well Flashplate and the biotinylated peptides were allowed to bind to the streptavidin surface for at least 1 hour before being washed once with 0.1% Tween20 in a Biotek ELx405 plate washer. The plates were then read in a PerkinElmer TopCount plate reader to measure the quantity of ^3H-labeled peptide bound to the Flashplate surface, measured as disintegrations per minute (dpm) or alternatively, referred to as counts per minute (cpm).
Where dpm=disintegrations per minute, cmpd=signal in assay well, and min and max are the respective minimum and maximum signal controls. […]

T1 sequence (Q99873 with tags, fused parts or gaps): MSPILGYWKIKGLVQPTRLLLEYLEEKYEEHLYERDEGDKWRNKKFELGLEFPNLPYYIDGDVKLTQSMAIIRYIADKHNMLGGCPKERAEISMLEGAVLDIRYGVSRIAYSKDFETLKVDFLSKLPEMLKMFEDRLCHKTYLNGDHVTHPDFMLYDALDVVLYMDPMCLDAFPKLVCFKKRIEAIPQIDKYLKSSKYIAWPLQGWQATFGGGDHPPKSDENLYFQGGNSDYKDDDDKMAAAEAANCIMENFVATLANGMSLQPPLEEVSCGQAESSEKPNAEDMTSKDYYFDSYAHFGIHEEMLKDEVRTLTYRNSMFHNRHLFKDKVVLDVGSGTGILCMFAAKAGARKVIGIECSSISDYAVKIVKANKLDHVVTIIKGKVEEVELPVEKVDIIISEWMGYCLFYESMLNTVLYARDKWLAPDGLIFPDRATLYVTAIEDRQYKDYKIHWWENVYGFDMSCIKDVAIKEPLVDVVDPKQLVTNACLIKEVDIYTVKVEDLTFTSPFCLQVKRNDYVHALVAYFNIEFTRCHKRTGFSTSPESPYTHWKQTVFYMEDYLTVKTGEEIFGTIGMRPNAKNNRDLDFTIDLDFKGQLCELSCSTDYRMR

Row | SMILES | IC50 [nM]
1 | CNCCN(C)Cc1cncn1[C@H]1CC[C@]2(CC1)CC(C)(C)CO2 [compound 98] | 4360
2 | CNCCN(C)Cc1c(C)noc1[C@H]1CC[C@@]2(CC1)CC(C)(C)CO2 [compound 113] | 79.5
3 | CN(CCN)Cc1c[nH]nc1[C@H]1CC[C@@]2(CC1)CC(C)(C)CO2 [compound 105] | 5.68
4 | CNCCN(C)Cc1c[nH]nc1C1CCC(C)(C)[C@H](COCCOC)C1 (stereo partly drawn) [compound 35, {2-[({3-[(3R)-3-[(2-methoxyethoxy)methyl]-4,4-dimethylcyclohexyl]-1H-pyrazol-4-yl}methyl)(methyl)amino]ethyl}(methyl)amine] | 51.9
5 | CNCCN(C)Cc1c[nH]nc1C1C[C@@H](C(=O)N(C)CC(C)C)C(C)(C)[C@H](C(=O)N(C)CC(C)C)C1 (some centres unmarked) [compound 12] | > 10000
6 | CNCCN(C)Cc1c[nH]nc1C1CC(COCC2CC2)CC(COCC2CC2)C1 (centres unmarked) [compound 2] | 69.2
7 | CNCCN(C)Cc1nccn1[C@H]1CC[C@@]2(CC1)CC(C)(C)CO2 [compound 69] | 255
8 | CNCCN(C)Cc1c[nH]nc1[C@H]1CC[C@]2(CCN(CCC(C)C)C2=O)CC1 [compound 10] | 55
9 | CNCCN(C)Cc1nocc1[C@H]1CC[C@@]2(CC1)CC(C)(C)CO2 [compound 117] | 51.3
10 | CNCCN(C)Cc1nncn1[C@H]1CC[C@]2(CC1)CC(C)(C)CO2 [compound 90] | > 10000
11 | CNCCN(C)Cc1c[nH]nc1C1CCC(C)(C)[C@H](OCC(C)C)C1 (stereo partly drawn) [compound 20, ({3-[(3R)-4,4-dimethyl-3-(2-methylpropoxy)cyclohexyl]-1H-pyrazol-4-yl}methyl)(methyl)[2-(methylamino)ethyl]amine] | 11
12 | CCC1CC(c2n[nH]cc2CN(C)CCNC)CC(C(=O)NCCOC)C1(C)C (centres unmarked) [compound 21, 3-ethyl-N-(2-methoxyethyl)-2,2-dimethyl-5-[4-([methyl[2-(methylamino)ethyl]amino]methyl)-1H-pyrazol-3-yl]cyclohexane-1-carboxamide dihydrochloride] | 246
13 | CNCCN(C)Cc1nn(C)nc1C1CCC2(CC1)CC(C)(C)CO2 (centres unmarked) [compound 86] | 50.1
14 | CNCCN(C)Cc1nocc1[C@H]1CC[C@]2(CC1)CC(C)(C)CO2 [compound 118] | 409
15 | CNCCN(C)Cc1nn[nH]c1[C@H]1CC[C@]2(CC1)CC(C)(C)CO2 [compound 89] | 59.7
16 | CC[C@]12CC[C@](CC)(C[C@@H](c3n[nH]cc3CN(C)CCNC)C1)O2 [compound 38, N1-((3-((1R,3s,5S)-1,5-diethyl-8-oxabicyclo[3.2.1]octan-3-yl)-1H-pyrazol-4-yl)methyl)-N1,N2-dimethylethane-1,2-diamine] | 111
17 | CNCCNCc1c[nH]nc1[C@H]1CC[C@]2(CC1)CC(C)(C)CO2 [compound 29, N1-((3-((5r,8r)-3,3-dimethyl-1-oxaspiro[4.5]decan-8-yl)-1H-pyrazol-4-yl)methyl)-N2-methylethane-1,2-diamine] | 193

Next, values leading:

Row | IC50 [nM] | SMILES
18 | 12.4 | CNCCN(C)Cc1c[nH]nc1[C@H]1CC[C@H](COCC(F)(F)F)CC1 [compound 24, N1,N2-dimethyl-N1-((3-((1r,4r)-4-((2,2,2-trifluoroethoxy)methyl)cyclohexyl)-1H-pyrazol-4-yl)methyl)ethane-1,2-diamine]
19 | 20.9 | CNCCN(C)Cc1ccnn1[C@H]1CC[C@]2(CC1)CC(C)(C)CO2 [compound 50, N1-((1-((5r,8r)-3,3-dimethyl-1-oxaspiro[4.5]decan-8-yl)-1H-pyrazol-5-yl)methyl)-N1,N2-dimethylethane-1,2-diamine]
20 | 22.1 | CNCCN(C)Cc1c[nH]nc1C1CCC(C)(C)[C@H](CO)C1 (stereo partly drawn) [compound 32, [(1R)-2,2-dimethyl-5-[4-({methyl[2-(methylamino)ethyl]amino}methyl)-1H-pyrazol-3-yl]cyclohexyl]methanol]
21 | 6.58 | CNCCN(C)Cc1c[nH]nc1[C@@H]1CC[C@H](OCCCOC)C2(CCCC2)C1 (racemic) [compound 27, N1-((3-((7R,10S)-10-(3-methoxypropoxy)spiro[4.5]decan-7-yl)-1H-pyrazol-4-yl)methyl)-N1,N2-dimethylethane-1,2-diamine]
22 | 38.7 | CNCCN(C)Cc1c(C)[nH]nc1[C@H]1CC[C@]2(CC1)CC(C)(C)CO2 [compound 58]
23 | 23 | CNCCN(C)Cc1sc(C)nc1[C@H]1CC[C@@]2(CC1)CC(C)(C)CO2 [compound 78]
24 | 13.6 | CNCCN(C)Cc1c[nH]nc1[C@H]1CC[C@@]2(CCCCO2)CC1 [compound 3]
25 | 37.2 | CNCCN(C)Cc1nn(C)cc1[C@H]1CC[C@]2(CC1)CC(C)(C)CO2 [compound 103]
26 | 8.7 | CNCCN(C)Cc1c[nH]nc1C1CCC2(CCC(OC)CC2)CC1 (centres unmarked) [compound 9, N1-((3-(9-methoxyspiro[5.5]undecan-3-yl)-1H-pyrazol-4-yl)methyl)-N1,N2-dimethylethane-1,2-diamine]
27 | 25.2 | CC[C@]12CC[C@](CC)(C[C@H](c3n[nH]cc3CN(C)CCNC)C1)O2 [compound 37, N1-((3-((1R,3r,5S)-1,5-diethyl-8-oxabicyclo[3.2.1]octan-3-yl)-1H-pyrazol-4-yl)methyl)-N1,N2-dimethylethane-1,2-diamine]
28 | 21.1 | CCOCC1(COCC)CCC(c2nn(C)cc2CN(C)CCNC)CC1 [compound 122]
29 | 4.28 | CCOCC1(COCC)CCC(c2n[nH]cc2CN(C)CCN)CC1 [compound 123]
30 | 45.3 | CN(CCN)Cc1c[nH]nc1[C@H]1CC[C@]2(CC1)CC(C)(C)CO2 [compound 106]
31 | 16.7 | CNCCN(C)Cc1c[nH]nc1C1CCC(COCC(C)C)(COCC(C)C)CC1 [compound 6]
32 | 14 | CNCCN(C)Cc1scnc1[C@H]1CC[C@]2(CC1)CC(C)(C)CO2 [compound 84]
33 | 9.43 | CNCCN(C)Cc1c[nH]nc1[C@H]1CC[C@]2(CCCOC2)CC1 [compound 4, N1-((3-((6s,9s)-2-oxaspiro[5.5]undecan-9-yl)-1H-pyrazol-4-yl)methyl)-N1,N2-dimethylethane-1,2-diamine]
34 | 13.1 | CCC1(CC)CC2(CCC(c3n[nH]cc3CN(C)CCNC)CC2)N(C)C1=O (centres unmarked) [compound 22, 3,3-diethyl-1-methyl-8-(4-((methyl(2-(methylamino)ethyl)amino)methyl)-1H-pyrazol-3-yl)-1-azaspiro[4.5]decan-2-one]
35 | 31.9 | CNCCN(C)Cc1nn(C)nc1[C@H]1CC[C@@]2(CC1)CC(C)(C)CO2 [compound 64]
36 | 12 | Cc1[nH]nc([C@H]2CC[C@@]3(CC2)CC(C)(C)CO3)c1CN(C)CCN [compound 51, N1-((3-((5s,8s)-3,3-dimethyl-1-oxaspiro[4.5]decan-8-yl)-5-methyl-1H-pyrazol-4-yl)methyl)-N1-methylethane-1,2-diamine]
37 | 7.93 | CCCOCC1(COCCC)CCC(c2n[nH]cc2CN(C)CCNC)CC1 [compound 36, N^1-((3-(4,4-bis(propoxymethyl)cyclohexyl)-1H-pyrazol-4-yl)methyl)-N^1,N^2-dimethylethane-1,2-diamine]
38 | 33.5 | CNCCN(C)Cc1sc(C)nc1[C@H]1CC[C@]2(CC1)CC(C)(C)CO2 [compound 100]
39 | 14.6 | CNCCN(C)Cc1cncn1[C@H]1CC[C@@]2(CC1)CC(C)(C)CO2 [compound 76]
40 | 11.5 | CNCCN(C)Cc1nn[nH]c1[C@H]1CC[C@@]2(CC1)CC(C)(C)CO2 [compound 67]
41 | 13.7 | CCOCC1(COCC)CCC(c2nn(C)cc2CN(C)CCN)CC1 [compound 124]
